# Assay results: publication PMC10182956 (Archives of Toxicology, 2023)
# “And” between values parts separate entries of the source, which are not always exact repeats. Equal values may be shown once. “Also recorded” adds a separate entry of the source. Read-outs that look alike come from different tables or passages of the source.
# Experiments:
# [1] = human, cited from earlier work
# HepaRG cells [2] = assay: cells; conditions: Homo sapiens, 24 h, read-out: MMP: Benchmark concentration (µM) per imaging endpoint calculated with BMDS software
# [3] = set-up: method as in Literature column of Supplementary table 4; conditions: value added to httk database; ref Supplementary table 4; cited from earlier work
# HepaRG cells [4] = conditions: HepaRG 24 h, population level; threshold ± 2 standard deviations of the response at the two lowest concentrations
# Method: (§2) Cellular responses were quantified using a high-content imaging approach (Fig. 1). Based on cell viability assessment, concentrations below the EC50 level were tested in the high-content imaging assay. After 24 h chemical exposure, live cells were incubated with CellROX, which reflects hydroxyl radi [...
# HepaRG cells [5] = assay: cells; conditions: Homo sapiens, 24 h, read-out: NM: Benchmark concentration (µM) per imaging endpoint calculated with BMDS software
# Method: as §2
# HepaRG cells [6] = conditions: for Oxidative stress response (in words): population level, threshold ± 2 standard deviations of the response at the two lowest concentrations
# HepaRG cells [7] = assay: High-content imaging assay: lipid accumulation (Bodipy lipid droplets); type: cell-based; conditions: HepaRG 24 h; for Lipid accumulation response (in words): population level, threshold ± 2 standard deviations of the response at the two lowest concentrations; for EC (BMC, 1 SD from control): Homo sapiens, lipid accumulation, Supplementary table 3, read-out: LA: Benchmark concentration (µM) per imaging endpoint calculated with BMDS software
# HepaRG cells [8] = conditions: for Mitochondrial membrane potential response (in words): population level, threshold ± 2 standard deviations of the response at the two lowest concentrations
# [9] = set-up: method as in earlier work; conditions: fraction unbound plasma; human; ref Aegerion Pharmaceuticals 2012; Bowsher et al. 1994; Scheen 1996; cited from earlier work
# HepaRG cells [10] = assay: Cell viability assessment (WST-1 assay); type: cell-based, human; conditions: Homo sapiens, 24 h exposure, reference chemicals, 95% CI in brackets, read-out: EC50 µM (95% CI) from cell viability (WST-1)
# Source text: Undifferentiated HepaRG cells were purchased from Biopredic international (Saint Grégoire, France). HepaRG cells have unlimited growth capacity and phenotypic stability, stable enzymatic activities over 4 weeks of cultivation, and similar metabolic function to primary human hepatocytes, and also avoid limitations of primary cells such as donor variability and phenotypic instability (Aninat et al. [2006]; Guillouzo et al. [2007]; Lambert et al. [2009]; Lübberstedt et al. [2011]; Andersson et al. [2012]). The line contains two cell types, hepatocyte-like and cholangiocyte-like cells (Parent et al. [2004]), which allows for elucidation of cell-specific toxicity (Jossé et al. [2008]). Cells were seeded at a density of approximately 27′000 cells/cm^2 into a 150 × 25 mm petri dish and were cultured for 2 weeks in William’s E medium (cat. nr.: 32,551,020, ThermoFisher Scientific, Massachusetts, USA) supplemented with 2 mM glutamine, 10% (v/v) fetal bovine serum (FBS) good forte (cat. nr.: P40-47,500, PAN-Biotech, Aidenbach, Germany), 100 U/ml penicillin and 100 µg/ml streptomycin (cat. nr.: 15,140,122, ThermoFisher Scientific, Massachusetts, USA), 5 µg/ml Gibco recombinant AOF insulin (cat. nr.: A11382II, ThermoFisher Scientific, Massachusetts, USA) and 50 µM hydrocortisone hemisuccinate (cat. nr.: H4881, Sigma-Aldrich, St. Louis, USA) at 37 °C and 5% CO2. Differentiation was induced by culturing the cells for another 2 weeks in the above mentioned medium supplemented with 1.7% DMSO. After 4 weeks in culture, differentiated HepaRG cells were seeded at a high density of approximately 227′000 cells/cm^2 (72,000 cells/well with 100 µl per well) into black 96-well plates with a clear bottom (cat.nr.: 3603, Corning, New York, USA) and maintained for 10 days. After 10 days, cells were first adapted to treatment medium (culture medium containing 0.5% DMSO and 2% FBS) for 48 h and then used for cell viability and high-content imaging analysis.
# Cell viability was analyzed using the WST-1 assay which is based on the measurement of mitochondrial dehydrogenase activity (cat. nr: ab155902, Abcam, Cambridge, UK). HepaRG cells were exposed to chemicals at defined concentrations for 24 h. Triton X-100 (0.01%) was a positive control. One hour before the end of incubation period, 10 µl of WST-1 reagent was added to each well, quickly mixed by shaking the plate, and returned to the cell culture incubator (37 °C, 5% CO2). After 1 h, absorbance was measured (450 nm, reference wavelength 620 nm) using a plate reader (Infinite M200 Pro, Tecan group, Männerdorf, Switzerland). Absorbance was then subtracted from the reference wavelength, corrected for background by subtracting values measured without cells, and then normalized to the solvent control, which was set to 100%. Dose–response data were fitted using drc package (Version 3.0.1) (Ritz et al. [2015]) in R 3.6.1. Data were from at least 3 independent experiments with 6 technical replicates per condition.
# [11] = Published in vivo pharmacokinetics (Css, plasma concentration, clearance); conditions: human; for hepatocyte CLint: hepatocytes (back-calculated, no incubation), in vitro intrinsic hepatic clearance calculated from in vivo clearance with formula 3, read-out: Calculated Clint (ul/min/10^6 cells); for In vivo Css (µM): calculated with Css = (Dose*F)/(Cl*dosing interval) or k0/Cl from published pharmacokinetic parameters, ref Bowsher et al. 1994, Welling et al. 1977
# Method: For the model evaluation, Css of selected reference chemicals were predicted using formula 1 with the same dose rate from the in vivo Css measurements. […] The formula to calculate Clint was derived from the function calc_hepatic_clearance within the httk package. Predicted Css values were then compared to published in vivo Css values. If there was no published in vivo Css available, Css was then calculated based on published in vivo pharmacokinetic parameters using the following formula (Supplementary table 3)4 Css(mg/L)=(Dose×F)/(Cl×dosinginterval)
# (§1) Supplementary table 3. Comparison of benchmark concentration and predicted Css with published pharmacokinetic values. Where indicated, in vivo derived Css values were calculated using following formula: Css = (Dose*F)/(Cl*dosing interval) or Css = k0/Cl with F = bioavailability, Cl = clearance, k0 = infusion rate and Css = steady state concentration.
# [12] = IVIVE derived median over all positive imaging endpoints; human simulation; Table 2
# Method: In our study, a three-compartment steady state pharmacokinetic (PK) model was parameterized and used for the simulations. […] Human data were used except where otherwise stated. Steady-state concentration (Css) in the blood was calculated using formula 1 (Pearce et al. [2017])1 Cssmg/l=ko/(GFR×fup+Qliver+Qgut×fup×Clmetabolism/Qliver+Qgut+fup×Clmetabolism/Rblood2plasma) where ko = constant dose rate (mg/kg BW/day), fup = in vitro measured chemical fraction unbound in plasma, Clmetabolism = metabolic clearance scaled from in vitro intrinsic hepatic clearance, Rblood2plasma = ratio of blood concentration of a chemical to the plasma concentration, GFR = glomerular filtration rate (mean 5.17 ml/min/kg^3/4), Qliver = blood flow to the liver (mean 59.9 ml/min/kg^3/4), and Qgut = blood flow to the gut (mean 47.5 ml/min/kg^3/4). Fraction unbound, metabolic clearance, and Rblood2plasma values were obtained from the httk package or from literature. Recognizing that formula 1 is linear in dose rate (ko), oral equivalent doses (OED) were then calculated using the Css predicted for a 1 mg/kg/day dose rate as in formula 2 (Rotroff et al. [2010]).2 OEDmg/kg/day=BMCuM×1mg/kg/day/CssuM
# The calculated OED corresponds to an oral daily dose which would lead to a plasma concentration equal to the in vitro-derived BMC. The OED is linearly related to the BMC and inversely related to Css. This equation is only valid for first-order metabolism (Rotroff et al. [2010]). A Monte Carlo analysis was used to simulate population variability in, GFR, Qliver, Qgut, and Clmetabolism across 1000 healthy individuals. Extrapolations were performed for each chemical and endpoint which was positive in the imaging assay. Every predicted parameter per chemical was then combined into one boxplot per endpoint, which contained all predicted OEDs across all positive endpoints.
# Vice versa, predicted OED derived from BMC were compared to published exposure values of the corresponding chemicals. Simulations were performed in humans where pharmacokinetic parameters for humans were available; otherwise, estimations were calculated in rats or rabbits, as stated in Fig. 7.
# [13] = IVIVE reverse dosimetry: oral equivalent dose (OED) from BMC; conditions: IVIVE derived median over all positive imaging endpoints; rat simulation (R script); Table 2
# Source text: Human data were used except where otherwise stated. […]
# mc_OED_WY14643_LD <- calc_mc_oral_equiv(40.98, chem.cas="50892-23-4", model = "3compartmentss",species="Rat", return.samples = T, samples=1000, httkpop = T) mc_OED_WY14643_MD <- calc_mc_oral_equiv(38.1, chem.cas="50892-23-4", model = "3compartmentss",species="Rat", return.samples = T, samples=1000, httkpop = T) mc_OED_WY14643_NM <- calc_mc_oral_equiv(386.28, chem.cas="50892-23-4", model = "3compartmentss",species="Rat", return.samples = T, samples=1000, httkpop = T)
# [14] = Published in vivo pharmacokinetics (Css, clearance); conditions: rat; for In vivo Css (µM): calculated with Css = (Dose*F)/(Cl*dosing interval) or k0/Cl from published pharmacokinetic parameters, ref Cunningham 2007, Adedayo Adedoyin, Leon Arons 1993b
# Source text: For the model evaluation, Css of selected reference chemicals were predicted using formula 1 with the same dose rate from the in vivo Css measurements. For chemicals with no in vitro intrinsic hepatic clearance and fraction unbound values available in the database included in the httk package, in silico predictions from (Sipes et al. [2017]) were loaded using load_sipes2017(). […]. The formula to calculate Clint was derived from the function calc_hepatic_clearance within the httk package. Predicted Css values were then compared to published in vivo Css values. If there was no published in vivo Css available, Css was then calculated based on published in vivo pharmacokinetic parameters using the following formula (Supplementary table 3)4 Css(mg/L)=(Dose×F)/(Cl×dosinginterval)
# as §1
# [15] = set-up: method as in Adedayo Adedoyin, Leon Arons 1993a; conditions: fraction unbound plasma; rat; ref Adedayo Adedoyin, Leon Arons 1993a; cited from earlier work
# [16] = set-up: method as in Adedayo Adedoyin, Leon Arons 1993a; conditions: rat; plasma clearance; ref Adedayo Adedoyin, Leon Arons 1993a; cited from earlier work
# [17] = single cell analysis, highest concentration 250 µM
# [18] = ref Bowsher et al. 1994, Scheen 1996
Compound,"EC (BMC, 1 SD from control) (HepaRG cells [2])",LogP [3],Number of apoptotic cells (nuclear morphology) response (in words) (HepaRG cells [4]),EC (BMC) (HepaRG cells [5]),Oxidative stress response (in words) (HepaRG cells [6]; HepaRG 24 h),Lipid accumulation response (in words) (HepaRG cells [7]),Concentration at which decrease of mitochondrial membrane potential exceeded the threshold (HepaRG cells [8]; HepaRG 24 h),Fup [9],EC50 (HepaRG cells [10]),hepatocyte CLint [11],In vivo Css (µM) [11],OED [12],"EC (BMC, 1 SD from control) (HepaRG cells [7])",Mitochondrial membrane potential response (in words) (HepaRG cells [8]; HepaRG 24 h),In vivo Css (µM) [14],also measured
O=C(NC1CCN(CCCCC2(C(=O)NCC(F)(F)F)c3ccccc3-c3ccccc32)CC1)c1ccccc1-c1ccc(C(F)(F)F)cc1 [lomitapide],0.58 µM,8.2,increased above the threshold,4 µM,no changes were observed,not and did not give rise to lipid accumulation,12 µM,0.002,13.5 µM,48.3 µL/min/1e6 cells,0.0002^3 µM,1333 mg/kg/day,,,,"In vivo clearance (L/h) ([1]; after 50 mg p.o., ref Aegerion Pharmaceuticals 2012): 573.4656 (after 50 mg p.o.) L/h"
CN(C)C(=N)N=C(N)N [metformin],,,increased above the threshold,1940 µM,,accumulated in a dose-dependent manner above the threshold; also recorded: having the potential to induce lipid accumulation,"50,000 µM",0.99,,4.01 µL/min/1e6 cells,,6778 mg/kg/day,987 µM,,,"In vivo Css ([1]; published, ref Birkett and Miners 1991, Graham et al. 2011, Freedman and Somberg 1991, Vasudev et al. 2001): 5.2 µM; Concentration at which decrease of oxidative stress fell below the threshold (HepaRG cells [6]; HepaRG 24 h): 50,000 µM; Concentration at which lipid accumulation was induced (HepaRG cells [7]; increase): 25,000 µM and 50,000 µM"
CN(C)[C@@H]1C(O)=C(C(N)=O)C(=O)[C@@]2(O)C(O)=C3C(=O)c4c(O)cccc4[C@@](C)(O)[C@H]3C[C@@H]12 [tetracycline],218 µM,,increased above the threshold,32.7 µM,,accumulated in a dose-dependent manner above the threshold,250 µM,,238 µM,,9.7^3 µM,30.2 mg/kg/day,32.9 µM,,,"Concentration at which increase of oxidative stress exceeded the threshold (HepaRG cells [6]; HepaRG 24 h): 125 µM and 250 µM; OS: Benchmark concentration (µM) per imaging endpoint calculated with BMDS software (HepaRG cells [6]; oxidative stress, HepaRG 24 h, Supplementary table 3): 69.7 µM; Oxidative stress in hepatocyte-like and cholangiocyte-like cells (in words) (HepaRG cells [6]; [17]): oxidative stress levels were elevated in both cell types; Mitochondrial membrane potential in hepatocyte-like and cholangiocyte-like cells (in words) (HepaRG cells [8]; [17]): decrease of mitochondrial membrane potential was observed in both cell types"
O=c1[nH]c(=O)n([C@@H]2O[C@H](CO)[C@@H](O)[C@@H]2F)cc1I [fialuridine],6.3 µM,-0.9,,45.1 µM,"neither induced lipid accumulation, had any consistent impact on oxidative stress",neither induced lipid accumulation; also recorded: did not give rise to lipid accumulation,,0.375,,0.173 µL/min/1e6 cells,0.6^3 µM,5.6 mg/kg/day,,increased MMP,,"In vivo clearance (L/h): Nonrenal clearance [1, 18]: 2.06 L/h; In vivo clearance (L/h): Renal clearance [1, 18]: 4.21 L/h; In vivo clearance (L/h): Total clearance [1, 18]: 6.27 L/h; Concentration at which increase of MMP (hyperpolarization) was observed / exceeded the threshold (HepaRG cells [8]; HepaRG 24 h): 25 µM"
Cc1cccc(Nc2cc(Cl)nc(SCC(=O)O)n2)c1C [WY14643],38.1 µM,,induced apoptosis,386 µM,,dose-dependently increased and exceeded the threshold,,,,,,,41 µM,MMP hyperpolarization,"2.5^3,5 µM",OED [13]: 1.7 mg/kg/day; Lipid accumulation response (in words) (HepaRG cells [7]; listed as WY-14693): having the potential to induce lipid accumulation
O=c1cc(-c2ccccc2)oc2ccc3ccccc3c12 [β-naphthoflavone],,4.4,none of the hallmarks were induced,,none of the hallmarks were induced,did not give rise to lipid accumulation,,,,,,,,none of the hallmarks were induced,2.3^3 µM,"Fup [15]: 0.04; hepatocyte CLint ([14]; hepatocytes (back-calculated, no incubation), in vitro intrinsic hepatic clearance calculated from in vivo clearance with formula 3, read-out: Calculated Clint (ul/min/10^6 cells)): 23.4 µL/min/1e6 cells; In vivo clearance (L/h) [16]: 1.3 (plasma clearance) L/h; Lipid accumulation response (in words) (HepaRG cells [7]; listed as BNF): not"
